How the values were obtained:
[1] = tested on: microtubule (HeLa human cervical cancer cells); assay: Fluorescence bio-imaging of microtubule in fixed HeLa cells pre-treated with Docetaxel-TCO conjugate; format: cell-based
Protocol: (§1) The fluorescence imaging test was performed using a DeltaVision Elite imaging system of GE Healthcare, and an Olympus IX-71 microscope was used.
Docetaxel-TCO conjugate (Dox-TCO) was used for fluorescence bio-imaging of microtubule. HeLa human cervical cancer cells were fixed, and cultured with Dox-TCO for 1 hour, and then washed with PBS.

[2] = tested on: mitochondria (HeLa cells); assay: Fluorescence imaging of mitochondria in living HeLa cells pre-treated with TPP-TCO; format: cell-based, human
Protocol: as §1
In order to confirm the fluorescence imaging of mitochondria in living cells, it was tested by the following method.
HeLa cells were incubated for 1 hour in the presence or absence of triphenylphosphonium (TPP)-TCO, and then HeLa cells were washed and treated with the compound of Example 5 or Example 6.
In addition, in order to confirm the selectivity of TPP-TCO and Example 5, and TPP-TCO and Example 6 for mitochondria, HeLa cells were treated with MitoTracker Deep Red, a mitochondria coloring dye, As a result, it was observed that the position of the fluorescence signal of MitoTracker Deep Red was consistent with that of Example 5 or Example 6.

[3] = Change in emission properties (quantum yield, excitation/emission maxima, fluorescence amplification) before and after reaction with TCO; format: physicochemical; details: for fluorescence amplification rate (on/off): before and after reaction with TCO; for fluorescence signal amplification efficiency after the reaction with TCO: long wavelength range, diethylamino group at R1
Protocol: (§2) In this test, the absorption spectrum was measured with a UV-VIS spectrophotometer UV-1650PC (Shimadzu), and the emission spectrum and motion data were measured using a Cary Eclipse Fluorescence spectrophotometer (Varian Associates), and the absolute quantum yield was measured with a QE-2000 (Otsuka Electronics).
The emission spectrum was compared when the maximum fluorescence intensity was reached before and after the reaction of the compound and TCO, and changes in fluorescence of the compounds of Examples 1 to 4 and Comparative Examples 1 to 4 were observed, and the results are shown in Table 1 below.
The emission spectrum was compared when the maximum fluorescence intensity was reached before and after the reaction of the compound and TCO, and changes in fluorescence of the compounds of Examples 1 and 4 and Comparative Examples 3 to 6 were observed, and the results are shown in Table 2 below, FIGS. 3 and 4.

[4] = Second rate constant of the reaction with TCO; format: physicochemical
Protocol: as §2

Row | λem maximum emission wavelength ([3]; Table 1) [nm] | λex largest excitation maxima at a given maximum emission wavelength ([3]; Table 1) [nm] | Φon absolute quantum yield after the reaction with TCO ([3]; Table 1) | Φoff absolute quantum yield before the reaction with TCO ([3]; Table 1) | λem maximum emission wavelength ([3]; Table 2) [nm] | λex largest excitation maxima at a given maximum emission wavelength ([3]; Table 2) [nm] | Φon absolute quantum yield after the reaction with TCO ([3]; Table 2) | Φoff absolute quantum yield before the reaction with TCO ([3]; Table 2) | Structure (SMILES) | fluorescence signal on addition to cells ([1]; fixed HeLa cells cultured with Dox-TCO for 1 hour, washed with PBS) | specificity of staining, immunofluorescence with α-tubulin antibody ([1]; fixed HeLa cells, Dox-TCO) | position of fluorescence signal versus MitoTracker Deep Red ([2]; HeLa cells, TPP-TCO and compound) | fluorescence mitochondria image ([2]; living HeLa cells treated with TPP-TCO for 1 hour, then compound) | fluorescence expression intensity in the extracellular region ([2]; living HeLa cells treated with TPP-TCO, then compound) | fluorescence amplification rate (on/off) ([3]; Table 1) | fluorescence amplification rate (on/off) ([3]; Table 2) | fluorescence signal amplification efficiency after the reaction with TCO ([3]; Table 2) | K2 second rate constant value ([4]; Table 1, measured at 20° C.) [m^−1s^−1] | K2 second rate constant value ([4]; Table 2, measured at 20° C.) [m^−1s^−1]
1 |  |  |  |  |  |  |  |  | CCN(CC)c1ccc(-c2c3c(n4ccc(-c5nnc(C)nn5)cc24)C(=O)N(CCCN2CCN(C)CC2)C3)cc1 [Example 6, 9-(4-(diethylamino)phenyl)-7-(6-methyl-1,2,4,5-tetrazin-3-yl)-2-(3-(4-methylpiperazin-1-yl)propyl)-1,2-dihydro-3H-pyrrolo[3,4-b]indolizin-3-one] | a bright fluorescence signal was generated | microtubule specific staining | consistent | a clear fluorescence mitochondria image was observed | 0 |  |  |  |  | 
2 | 484 | 375 | 0.683 | 0.002 | 484 | 375 | 0.683 | 0.002 | Cc1nnc(-c2ccn3c4c(c(-c5ccccc5)c3c2)CN(CCCNC(=O)OC(C)(C)C)C4=O)nn1 [Example 1, tert-butyl (3-(7-(6-methyl-1,2,4,5-tetrazin-3-yl)-3-oxo-9-phenyl-1,3-dihydro-2H-pyrrolo[3,4-b]indolizin-2-yl)propyl)carbamate] |  |  |  |  |  | >1,000 | >1,000 | excellent | 24 | 24
3 | 505 | 383 | 0.485 | 0.001 |  |  |  |  | COc1ccc(-c2c3c(n4ccc(-c5nnc(C)nn5)cc24)C(=O)N(CCCNC(=O)OC(C)(C)C)C3)cc1 [Example 2, tert-butyl (3-(9-(4-methoxyphenyl)-7-(6-methyl-1,2,4,5-tetrazin-3-yl)-3-oxo-1,3-dihydro-2H-pyrrolo[3,4-b]indolizin-2-yl)propyl)carbamate] |  |  |  |  |  | >1,000 |  |  | 23 | 
4 | 562 | 390 | 0.064 | 0.002 |  |  |  |  | Cc1nnc(-c2ccn3c4c(c(-c5ccc(N)cc5)c3c2)CN(CCCNC(=O)OC(C)(C)C)C4=O)nn1 [Example 3, tert-butyl (3-(9-(4-aminophenyl)-7-(6-methyl-1,2,4,5-tetrazin-3-yl)-3-oxo-1,3-dihydro-2H-pyrrolo[3,4-b]indolizin-2-yl)propyl)carbamate] |  |  |  |  |  | >600 |  |  | 22 | 
5 |  |  |  |  | 625 | 438 | 0.028 | 0.013 | CCN(CC)c1ccc(-c2c3c(n4ccc(C(C)=O)cc24)C(=O)N(CCCNC(=O)CCC(=O)NCc2ccc(-c4nnc(C)nn4)cc2)C3)cc1 [Comparative Example 6, N^1-(3-(7-acetyl-9-(4-(diethylamino)phenyl)-3-oxo-1,3-dihydro-2H-pyrrolo[3,4-b]indolizin-2-yl)propyl)-N^4-(4-(6-methyl-1,2,4,5-tetrazin-3-yl)benzyl)succinimide] |  |  |  |  |  |  | 3 | significantly reduced |  | 1.2
6 | 532 | 416 | 0.168 | 0.011 |  |  |  |  | CC(=O)c1ccn2c3c(c(-c4ccc(-c5nnc(C)nn5)cc4)c2c1)CN(CCCNC(=O)OC(C)(C)C)C3=O [Comparative Example 1, tert-butyl (3-(7-acetyl-9-(4-(6-methyl-1,2,4,5-tetrazin-3-yl)phenyl)-3-oxo-1,3-dihydro-2H-pyrrolo[3,4-b]indolizin-2-yl)propyl)carbamate] |  |  |  |  |  | 20 |  |  | 21 | 
7 | 581 | 401 | 0.045 | 0.001 | 581 | 401 | 0.045 | 0.001 | CCN(CC)c1ccc(-c2c3c(n4ccc(-c5nnc(C)nn5)cc24)C(=O)N(CCCNC(=O)OC(C)(C)C)C3)cc1 [Example 4, tert-butyl (3-(9-(4-(diethylamino)phenyl)-7-(6-methyl-1,2,4,5-tetrazin-3-yl)-3-oxo-1,3-dihydro-2H-pyrrolo[3,4-b]indolizin-2-yl)propyl)carbamate] |  |  |  |  |  | >600 | >600 | excellent | 22 | 22
8 | 522 | 401 | 0.583 | 0.042 |  |  |  |  | CC(=O)c1ccn2c3c(c(-c4ccc(C(=O)NCc5ccc(-c6nnc(C)nn6)cc5)cc4)c2c1)CN(CCCNC(=O)OC(C)(C)C)C3=O [Comparative Example 2, tert-butyl (3-(7-acetyl-9-(4-((4-(6-methyl-1,2,4,5-tetrazin-3-yl)benzyl)carbamoyl)phenyl)-3-oxo-1,3-dihydro-2H-pyrrolo[3,4-b]indolizin-2-yl)propyl)carbamate] |  |  |  |  |  | 14 |  |  | 15 | 
9 | 530 | 401 | 0.325 | 0.017 | 530 | 401 | 0.325 | 0.017 | CC(=O)c1ccn2c3c(c(-c4ccccc4)c2c1)CN(CCCNC(=O)CCC(=O)NCc1ccc(-c2nnc(C)nn2)cc1)C3=O [Comparative Example 4, N^1-(3-(7-acetyl-3-oxo-9-phenyl-1,3-dihydro-2H-pyrrolo[3,4-b]indolizin-2-yl)propyl)-N^4-(4-(6-methyl-1,2,4,5-tetrazin-3-yl)benzyl)succinimide] |  |  |  |  |  | 24 | 24 |  | 8.5 | 8.5
10 |  |  |  |  | 608 | 418 | 0.016 | 0.005 | CCN(CC)c1ccc(-c2c3c(n4ccc(C(=O)NCc5ccc(-c6nnc(C)nn6)cc5)cc24)C(=O)N(CCCNC(=O)OC(C)(C)C)C3)cc1 [Comparative Example 5, tert-butyl (3-(9-(4-(diethylamino)phenyl)-7-((4-(6-methyl-1,2,4,5-tetrazin-3-yl)benzyl)carbamoyl)-3-oxo-1,3-dihydro-2H-pyrrolo[3,4-b]indolizin-2-yl)propyl)carbamate] |  |  |  |  |  |  | 30 | significantly reduced |  | 15
11 | 493 | 375 | 0.616 | 0.012 | 493 | 375 | 0.616 | 0.012 | Cc1nnc(-c2ccc(CNC(=O)c3ccn4c5c(c(-c6ccccc6)c4c3)CN(CCCNC(=O)OC(C)(C)C)C5=O)cc2)nn1 [Comparative Example 3, tert-butyl (3-(7-((4-(6-methyl-1,2,4,5-tetrazin-3-yl)benzyl)carbamoyl)-3-oxo-9-phenyl-1,3-dihydro-2H-pyrrolo[3,4-b]indolizin-2-yl)propyl)carbamate] |  |  |  |  |  | 67 | 67 |  | 15 | 15
